In article PMC10541425, “Targeting Toll-like receptor-driven systemic inflammation by engineering an innate structural fold into drugs” (Nature Communications, 2023):
Read-outs that look alike come from different tables or passages of the source. Residues, ends and D or L forms follow the SMILES beside them.

Assays:
[1] = test system: THP1-XBlue-CD14 reporter cells
Description: (§5) Effects on NF-κB activation were assessed using THP1-XBlue-CD14 reporter cells (InvivoGen, San Diego, CA, USA). Briefly, 180,000 cells well^−1 were seeded in 96-well plates in phenol red RPMI media, supplemented with 10% (vv^−1) heat-inactivated FBS and 1% (vv^−1) Antibiotic-Antimycotic solution (AA). […] NF-κB activation was determined after 20 h of incubation according to the manufacturer’s instructions (InvivoGen, San Diego, CA, USA) by mixing 20 μL of supernatant with 180 μL of SEAP detection reagent (Quanti-BlueTM, InvivoGen, San Diego, CA, USA), followed by absorbance measurement at 600 nm. Data shown are mean values ± SD obtained from at least four independent experiments, all made in triplicate. In another set of experiments, the cells were stimulated with 100 ng mL^−1 of E. coli LPS, 1 μg mL^−1 S. aureus LTA, 1 μg mL^−1 E. coli PGN, 1 μg mL^−1 S. aureus PGN, or 10 μg mL^−1 S. cerevisiae zymosan in the presence or the absence of 10 μM of linear and stapled HVF18. The experiment was performed as described above.

hCD14 = molecular target: T1, hCD14 (Homo sapiens, UniProt P08571, C306S); test: Microscale thermophoresis, binding to CD14; conditions: 10 mM Tris pH 7.4, read-out: Kd (µM) to CD14, MST
T1 construct: His-tag; non-native C-terminal linker with a protease-site-like motif, seen in the peptide map at 335-349 (C); made in house; host or cells: insect cells
T1 sequence (P08571 with tags, fused parts or gaps C306S limits assumed): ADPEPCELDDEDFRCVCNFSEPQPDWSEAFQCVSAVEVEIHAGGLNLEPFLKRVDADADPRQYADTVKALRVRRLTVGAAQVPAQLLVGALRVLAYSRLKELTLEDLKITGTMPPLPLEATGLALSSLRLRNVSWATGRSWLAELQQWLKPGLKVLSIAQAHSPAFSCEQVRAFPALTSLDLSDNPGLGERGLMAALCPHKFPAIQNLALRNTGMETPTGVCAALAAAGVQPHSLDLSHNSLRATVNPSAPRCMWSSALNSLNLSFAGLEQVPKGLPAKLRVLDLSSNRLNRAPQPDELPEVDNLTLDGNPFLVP
Description: Microscale thermophoresis (MST) was performed on a NanoTemper Monolith NT.115 apparatus (Nano Temper Technologies, Germany). A Monolith NT Protein labeling kit RED – NHS (Nano Temper Technologies, Germany) was used to label 20 μM of recombinant hCD14 according to the manufacturer’s protocol. […] The sample was then loaded into standard glass capillaries (Monolith NT Capillaries, Nano Temper Technologies), and MST analysis was performed (settings for the light-emitting diode and infrared laser were 80%).

[2] = Cell viability of THP1-XBlue-CD14 reporter cells; conditions: human; for viability at 20 h, 1 µM: 1 µM peptide; for viability at 20 h, 2 µM: 2 µM peptide; for viability at 20 h, 5 µM: 5 µM peptide; for viability at 20 h, 10 µM: 10 µM peptide; for viability at 20 h, 20 µM: 20 µM peptide
Description: as §5

in vitro = conditions: human, THP1-XBlue-CD14 reporter cells, Cell viability
Description: as §5

[3] = molecular target: T2, human neutrophil elastase (HNE) (Homo sapiens, UniProt P08246); test: Protease degradation with human neutrophil elastase (SDS-PAGE, RP-HPLC, LC-MS/MS); assay type: in vitro ADME
T2 construct: purchased Calbiochem, Merck, Darmstadt, Germany
T2 sequence (P08246 30-267): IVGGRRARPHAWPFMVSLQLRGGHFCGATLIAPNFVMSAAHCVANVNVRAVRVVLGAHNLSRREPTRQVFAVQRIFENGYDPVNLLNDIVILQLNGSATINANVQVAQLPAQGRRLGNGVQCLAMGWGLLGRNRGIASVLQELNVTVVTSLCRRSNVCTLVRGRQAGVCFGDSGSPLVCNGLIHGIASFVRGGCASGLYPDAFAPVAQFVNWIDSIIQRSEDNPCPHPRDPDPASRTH
Description: (§1) The peptide was pre-mixed with Buffer A (1:3) 5 min before being loaded on the column. Protease-digested peptides were analyzed by HPLC as described above. Samples from two different digestions were analyzed.
(§2) Peptides were resuspended in endotoxin-free water at a final concentration of 1 mM. […] All digestions were performed in three independent experiments.
(§3) Two micrograms of peptide from each condition were loaded on 10–20% Novex Tricine pre-cast gels (Invitrogen, Carlsbad, CA, USA). The run was performed at 100 V for 100 min. The gel was stained by using Coomassie Brilliant blue (Invitrogen, Carlsbad, CA, USA), and images were acquired with a Gel Doc Imager (Bio-Rad Laboratories, Hercules, CA, USA). Samples from three independent digestions were analyzed.
(§4) LC-MS/MS analysis was performed using an HFX Orbitrap MS system (Thermo Scientific, San Jose, CA, USA) equipped with a Dionnex 3000 Ultimate HPLC (Thermo Fisher, USA). Settings were used as previously described by Petruk et al.[55] with minor changes. […] The precursor tolerance was set to 10 ppm and 0.02 Da for the MSMS fragments, and no enzyme was selected, allowing unspecific cleavage. Samples from two independent digestions were analyzed.

[4] = CD analysis after exposure to 80 °C (conformational stability); assay type: physicochemical; conditions: then CD, minima at 208 and 222 nm
[5] = molecular target: T3, P. aeruginosa elastase (PE) (Pseudomonas aeruginosa, UniProt P14756); assay type: in vitro ADME
T3 construct: purchased Calbiochem, Merck, Darmstadt, Germany
Description: as §1, §2, §3, §4

T3 sequence (P14756 198-498): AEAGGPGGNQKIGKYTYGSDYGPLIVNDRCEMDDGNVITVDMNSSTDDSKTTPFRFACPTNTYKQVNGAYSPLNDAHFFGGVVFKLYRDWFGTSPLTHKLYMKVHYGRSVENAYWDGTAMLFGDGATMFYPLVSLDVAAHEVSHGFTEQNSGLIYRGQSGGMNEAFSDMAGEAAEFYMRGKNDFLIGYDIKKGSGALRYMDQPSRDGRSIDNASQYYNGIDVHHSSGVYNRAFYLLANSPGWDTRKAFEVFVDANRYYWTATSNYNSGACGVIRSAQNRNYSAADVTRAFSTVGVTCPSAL

Row | SMILES | Cell viability, PGN-EB 1 µg/ml + peptide [1] | viability at 20 h, 1 µM ([2]; with LPS, replicate 1) [%] | viability at 20 h, 1 µM ([2]; with LPS, replicate 2) [%] | viability at 20 h, 1 µM ([2]; with LPS, replicate 3) [%] | viability at 20 h, 1 µM ([2]; with LPS, replicate 4) [%] | viability at 20 h, 2 µM ([2]; with LPS, replicate 1) [%] | viability at 20 h, 2 µM ([2]; with LPS, replicate 2) [%] | viability at 20 h, 2 µM ([2]; with LPS, replicate 3) [%] | viability at 20 h, 2 µM ([2]; with LPS, replicate 4) [%] | viability at 20 h, 5 µM ([2]; with LPS, replicate 1) [%] | viability at 20 h, 5 µM ([2]; with LPS, replicate 2) [%] | viability at 20 h, 5 µM ([2]; with LPS, replicate 3) [%] | viability at 20 h, 5 µM ([2]; with LPS, replicate 4) [%] | viability at 20 h, 10 µM ([2]; with LPS, replicate 1) [%] | viability at 20 h, 10 µM ([2]; with LPS, replicate 2) [%] | viability at 20 h, 10 µM ([2]; with LPS, replicate 3) [%] | viability at 20 h, 10 µM ([2]; with LPS, replicate 4) [%] | viability at 20 h, 20 µM ([2]; with LPS, replicate 1) [%] | viability at 20 h, 20 µM ([2]; with LPS, replicate 2) [%] | viability at 20 h, 20 µM ([2]; with LPS, replicate 3) [%] | other results
1 | CC[C@H](C)[C@H](NC(=O)[C@H](Cc1c[nH]c2ccccc12)NC(=O)[C@H](CCCCN)NC(=O)[C@H](CCCCN)NC(=O)[C@H](CC(C)C)NC(=O)[C@H](CCCNC(=N)N)NC(=O)[C@H](Cc1ccccc1)NC(=O)[C@@H](NC(=O)[C@@H](N)Cc1cnc[nH]1)C(C)C)C(=O)N[C@@H](CCC(N)=O)C(=O)N[C@@H](CCCCN)C(=O)N[C@H](C(=O)N[C@H](C(=O)N[C@@H](CC(=O)O)C(=O)N[C@@H](CCC(N)=O)C(=O)N[C@@H](Cc1ccccc1)C(=O)NCC(=O)N[C@@H](CCC(=O)O)C(=O)O)[C@@H](C)CC)C(C)C [HVF18] (H-HVFRLKKWIQKVIDQFGE-OH) | 85.0457 | 79.5 | 76.5 | 83.4 | 78.1 | 94.1 | 84.3 | 83.2 | 88.3 | 107 | 97.5 | 80.5 | 82.3 | 89.5 | 92.1 | 82.5 | 103 | 90.6 | 85.3 | 77.4 | Kd (hCD14; with NaCl (150 mM), measurement 1): 3.2 µM; Kd (hCD14; with NaCl (150 mM), measurement 2): 2.5 µM; Kd (hCD14; with NaCl (150 mM), measurement 3): 1.1 µM; Kd (hCD14; with NaCl (150 mM), measurement 4): 2.7 µM; Kd (hCD14; with NaCl (150 mM), measurement 5): 2.5 µM; Kd (hCD14; with NaCl (150 mM), measurement 6): 1.6 µM; Kd (hCD14; without NaCl, measurement 1): 8.3 µM; Kd (hCD14; without NaCl, measurement 2): 6.2 µM; Kd (hCD14; without NaCl, measurement 3): 5.9 µM; Kd (hCD14; without NaCl, measurement 4): 8.7 µM; Kd (hCD14; without NaCl, measurement 5): 7.5 µM; Kd (hCD14; without NaCl, measurement 6): 2.1 µM; viability at 20 h, 20 µM ([2]; with LPS, replicate 4): 91.1%; viability at 20 h, 20 µM ([2]; without LPS, replicate 1): 99.3%; viability at 20 h, 20 µM ([2]; without LPS, replicate 2): 72.9%; viability at 20 h, 20 µM ([2]; without LPS, replicate 3): 84.9%; viability at 20 h, 20 µM ([2]; without LPS, replicate 4): 73.7%; viability at 20 h, 10 µM (in vitro; LTA 1 µg/ml + peptide): 105%; viability at 20 h, 10 µM (in vitro; PGN-SA 10 µg/ml + peptide): 74.3%
2 | CC[C@H](C)[C@H](NC(=O)[C@H](Cc1c[nH]c2ccccc12)NC(=O)[C@H](CCCCN)NC(=O)[C@H](CCCCN)NC(=O)[C@H](CC(C)C)NC(=O)[C@H](CCCNC(=N)N)NC(=O)[C@H](Cc1ccccc1)NC(=O)[C@@H](NC(=O)[C@@H](N)Cc1c[nH]cn1)C(C)C)C(=O)N[C@@]1(C)CCCC=CCCC[C@@](C)(C(=O)N[C@@H](CCC(N)=O)C(=O)N[C@@H](Cc2ccccc2)C(=O)NCC(=O)N[C@@H](CCC(=O)O)C(=O)O)NC(=O)[C@H]([C@@H](C)CC)NC(=O)[C@H](C(C)C)NC(=O)[C@H](CCCCN)NC1=O [sHVF18] | 75.0616 | 88.7 | 90.5 | 78.9 | 86.3 | 102 | 92.8 | 74.9 | 96.3 | 106 | 93.7 | 79.1 | 95 | 99.1 | 88.8 | 82.4 | 87.8 | 104 | 70.9 | 67.5 | Fragmentation seen by LC-MS/MS after HNE digestion (in words) [3]: no identified sHVF18 fragments; Conformational stability after exposure to 80 °C (CD analysis) [4]: still presented an α-helical spectrum; Cell viability, PGN-SA 10 µg/ml + peptide [1]: 69.8483; Cell viability, Zymosan 10 µg/ml + peptide [1]: 73.0816; viability at 20 h, 20 µM ([2]; with LPS, replicate 4): 77.9%; viability at 20 h, 20 µM ([2]; without LPS, replicate 1): 112%; viability at 20 h, 20 µM ([2]; without LPS, replicate 2): 69.7%; viability at 20 h, 20 µM ([2]; without LPS, replicate 3): 81.5%; viability at 20 h, 20 µM ([2]; without LPS, replicate 4): 90.5%; viability at 20 h, 10 µM (in vitro; LTA 1 µg/ml + peptide): 91.3%; viability at 20 h, 10 µM (in vitro; PGN-SA 10 µg/ml + peptide): 55.8%; Resistance to P. aeruginosa elastase (in words) ([5]; 0.2 µg PE, 0–18 h, SDS-PAGE, RP-HPLC, LC-MS/MS, versus linear peptide): improved resistance; Fragmentation seen by LC-MS/MS after PE digestion (in words) ([5]; 30 min and 3 h): no identified sHVF18 fragments
